Laboratory results from patent US20050059610A1 (priority 2003, published 2005).
“Also recorded” adds a separate entry of the source. Like-named read-outs stand apart in the source and are kept apart here.

Tests used:
HSP 72 = test: HSP expression in heart and lung tissue of unstressed rats (Western blot); format: in vivo, rat
Procedure: (§1) GLN enhances heat shock protein expression in the unstressed and stressed myocardium. […] The increase was also observed for HSP 27 (another of the protective heat shock proteins) wherein the induction occurred as early as 4-6 hours and persisted for up to 48-72 hours.
Tissues were then harvested four hours post-GLN administration, and HSP 72 expressions were analyzed by Western blot. The image shown is representative of those obtained in four different experiments. The graph represents a percent increase in HSP 72 over control. […] (*p<0.001, **p<0.01, ***p<0.05 compared to control by ANOVA.)

HSP 72 and 27 = test: HSP expression in hearts of LPS-injured rats (Western blot); format: in vivo, rat; settings: 0.75 g/kg GLN with 5 mg/kg LPS; six hours; vs LR control
Procedure: as §1
Tissues were harvested six hours post-LPS injury and analyzed for HSP 72 expression via Western blot. Each lane represents protein extracts from a separate animal. Relative densitometry are expressed as means ±SE. *−p<0.0005, compared with LR resuscitation alone assessed by Students t test.

cardiomyocytes = test: Ischemia/reperfusion injury of isolated cardiomyocytes; format: cell-based
Procedure: Spontaneously contracting cardiomyocytes were studied.
Cardiomyocytes were allowed to equilibrate at baseline normoxic conditions for 60 minutes.

[1] = tested on: polymicrobial sepsis (CLP); test: Cecal ligation and puncture (CLP): lung and heart tissue metabolism by MRS, survival; format: in vivo, Sprague-Dawley rats
Procedure: Survival was monitored for five days. In a separate group of animals (n=4/group), lung and heart tissue was harvested 24 hours post-CLP and tissue metabolism was analyzed by ^1H-MRS and ^31P-MRS.

heatstroke = test: Experimental heatstroke in the rat, oral GLN; format: in vivo, Sprague-Dawley Rats
Procedure: Heatstroke was performed in anesthetized rats (ketamine/xylazine) by heating animals to 42 deg C. (rectal temperature) for 30 minutes. Survival was analyzed for five days post-heatstroke. In a separate set of animals, HSP 70 and Heat Shock Factor-1 activation (HSF-1) were analyzed at 1-hour and 24-hours post-heatstroke in heart and lung tissue via western blot (n=10/group). Statistical analysis was performed via Fischer's Exact Test for survival and ANOVA with Duncan grouping as post-hoc test for HSP-70 and HSF-1 expression.

sepsis (CLP) = test: CLP with or without quercetin (HSP 70 inhibitor): survival, lung HSP/NOS, metabolism, TNF; format: in vivo, Sprague-Dawley rats
Procedure: Methods: Male Sprague-Dawley rats were divided into 5 groups. Two groups were treated with 400 mg/kg of quercetin (Q) IP (HSP 70 inhibitor) 6 hours pre-CLP. […] The final group (CONT, n=6) received no treatment. Five-day survival was monitored. In separate studies, lung was harvested 24-hours post-CLP and tissue metabolism analyzed by 31P- and 1H-MRS. A final study analyzed blood for TNF- at 6 hours post-CLP and lung tissue 6 hours post-CLP for HSP-70, iNOS, eNOS, and activated heat shock factor-1 (HSF-1).

[2] = tested on: onset of ischemia (1 mm of ST depression); test: Exercise stress test in patients with chronic stable angina, crossover trial; format: in vivo, human; settings: oral GLN 80 mg/kg 40 minutes prior to exercise stress test; 17 patients; vs placebo
Excerpt: Patients were then crossed over following a one-week interval.

critically ill patients = test: Clinical outcomes in critically ill patients, glutamine vs control; format: in vivo, human
endotoxin-induced sepsis = test: Lethal endotoxemia: survival, HSP expression, cytokine release; format: in vivo, rat; settings: GLN concurrently with lethal doses of endotoxin
Procedure: Evaluation of pro-inflammatory cytokine release was also assessed following endotoxemia.

[3] = tested on: peripheral blood mononuclear cells; test: Glutamine-treated peripheral blood mononuclear cells; format: cell-based
[4] = tested on: intestinal epithelial cells; test: Protection of cells against heat and oxidant stress; format: cell-based
Excerpt: This was proven when blockade of HSP 70 expression via quercetin (inhibits HSF-1 binding) and via direct antisense inhibition of the HSP-70 gene (FIG. 12).

[5] = tested on: myocardial ischemia/reperfusion injury
critically ill humans = settings: cited from earlier work; for tolerability of the maximum dose previously administered in humans: even in critically ill patients
[6] = in vivo; cited from earlier work
[7] = tested on: infection in patients following bone marrow transplantation; settings: parenteral nutritional program supplemented with glutamine (Calder and Yapoob 1999); cited from earlier work
[8] = five days of oral GLN prior to heatstroke
[9] = GLN 0.75 g/kg IV one-hour post-CLP, 6 hours post-CLP
[10] = non-pancreatic diagnoses, n = 7

NC(=O)CC[C@H](N)C(=O)O [GLN, Glutamine]
HSP 27 induction, earliest occurrence (HSP 72; unstressed rat heart): 4 to 6 h
HSP 27 induction, persistence up to (HSP 72; unstressed rat heart): 48 to 72 h
HSP 70 and HSP 25 in heart and lung tissue (HSP 72; unstressed rats): enhance
HSP 72 expression in heart and lung tissue vs control (densitometry) (HSP 72; unstressed rats, GLN 0.15, 0.45, 0.75 g/kg over 12-15 minutes, tissue four hours post-GLN): significantly enhanced; also recorded: significantly increased
HSP 72 and 27 expression in heart (western blot) (HSP 72 and 27): markedly enhanced
HSP 72 content (western blot) vs cells not receiving GLN (cardiomyocytes; 10 mM GLN): significant increase
return of contractile function following I/R injury (cardiomyocytes; 10 mM GLN): significantly enhanced
cell death from ischemia/reperfusion (cardiomyocytes; 10 mM GLN one hour before and throughout ischemia and reperfusion, control 48%): 22%
fall in lung tissue Creatine/phosphocreatine ([1]; 24 hours post-CLP): significantly attenuated
fall in lung tissue glucose ([1]; 24 hours post-CLP): significantly attenuated
fall in lung tissue glutamine ([1]; 24 hours post-CLP): significantly attenuated
lung lactate accumulation ([1]; 24 hours post-CLP, p<0.06): trend towards a decrease
five day mortality rate post-CLP ([1]; GLN 0.75 g/Kg one hour post surgery): 78%
NAD+ content in lung and heart tissue following CLP ([1]; GLN 0.75 g/Kg one hour post surgery, 24 hours post-CLP): significant improvement
HSF-1 activation (heatstroke; 1-hour and 24-hours post-heatstroke): No change
HSP 70 expression in heart and lung tissue (heatstroke; 1 hour post-heatstroke, versus unheated animals and heated controls): significantly enhanced
HSP 70 between GLN and control animals (heatstroke; 24 hours post-heatstroke): no significant difference
mortality following heatstroke (heatstroke; GLN 0.65 g/kg gavage twice a day for five days, 42 deg C. for 30 minutes, control 62.5%): 12.5%
HSP 70 expression in heart, lung, and colon tissue (heatstroke; [8]): enhanced
mortality from lethal heatstroke (in words) (heatstroke; [8]): significantly reduced
lung NAD+ (sepsis (CLP); 24-hours post-CLP, MRS): improved
lung lactate accumulation (sepsis (CLP); 24-hours post-CLP, MRS): attenuated
lung eNOS (sepsis (CLP); 6 hours post-CLP): enhanced
lung iNOS (sepsis (CLP); 6 hours post-CLP): attenuated
plasma TNF- expression (sepsis (CLP); 6 hours post-CLP): attenuated
5-day survival (sepsis (CLP); GLN 0.75 g/kg IV one-hour post-CLP): significant improvement
lung HSF-1 activation (sepsis (CLP); [9]): enhanced
lung HSP70 expression (sepsis (CLP); [9]): enhanced
onset of ST depression [2]: significant delay
ICU days (critically ill patients; all diagnoses, n = 15): 15.73 ± 16.18 days
Length of stay (critically ill patients; all diagnoses, n = 15): 29.73 ± 14.46 days
Maximum Total Bilirubin (units??) (critically ill patients; all diagnoses, n = 15): 1.23 ± 0.67
Maximum Total Creatinine (units??) (critically ill patients; all diagnoses, n = 15): 1.26 ± 0.89
Number of bacterial infections (critically ill patients; all diagnoses, n = 15): 0.20 ± 0.41
Number of infections (critically ill patients; all diagnoses, n = 15): 1.87 ± 2.59
One or more bacterial infections (%) (critically ill patients; all diagnoses, n = 15): 20.0%
One or more infections (%) (critically ill patients; all diagnoses, n = 15): 60.0%
Ventilator days (critically ill patients; all diagnoses, n = 15): 12.07 ± 15.25 days
ICU days (critically ill patients; [10]): 16.71 ± 7.65 days
Length of stay (critically ill patients; [10]): 25.29 ± 6.18 days
Maximum Total Bilirubin (units??) (critically ill patients; [10]): 1.70 ± 0.70
Maximum Total Creatinine (units??) (critically ill patients; [10]): 1.80 ± 1.07
Number of bacterial infections (critically ill patients; [10]): 0.0 ± 0.0
Number of infections (critically ill patients; [10]): 1.43 ± 1.40
One or more infections (%) (critically ill patients; [10]): 57.1%
One ore more bacterial infection (%) (critically ill patients; [10]): 0%
Ventilator days (critically ill patients; [10]): 12.86 ± 9.03 days
HSP 70 and 23 following lethal endotoxemia (endotoxin-induced sepsis): enhanced
mortality following lethal endotoxemia (endotoxin-induced sepsis): reduced mortality
heat shock protein expression [3]: increase
tumor-necrosis alpha release [3]: significant attenuation
protection of cells against heat and oxidant stress [4]: protection
recovery of cardiac flow following reperfusion ([5]; 0.75 g/kg alanine-glutamine (0.52 g/kg glutamine) IP 18 hours prior, pre-load 8 and 12 mmHg): significantly improved
percent recovery of coronary flow ([5]; 60 minutes following reperfusion, 0.52 g/kg GLN 18 hours prior): significantly enhanced
post-I/R cardiac output ([5]; single dose 18 hours prior to 15 minutes of no flow ischemia): significant improvement
tolerability of the maximum dose previously administered in humans (critically ill humans): without adverse side effects
tolerability of the maximum dose previously administered in humans (critically ill humans; listed as L-Glutamine): tolerated well without adverse side effects
toxicity in critically ill humans (critically ill humans; variety of clinical settings): without any evidence of toxicity
half-life [6]: 6 h
level of infection [7]: lower level of infection
